Source: article PMC5438648, “Identifying the structure-activity relationship of leelamine necessary for inhibiting intracellular cholesterol transport” (Oncotarget, 2017)
Read-outs that look alike come from different tables or passages of the source.

Experiments:
1205 Lu melanoma cells = experiment: MTS cell viability assay, 1205 Lu melanoma cells; type: cell-based, human; details: 72 hours treatment, read-out: Melanoma cell killing efficacy (IC50 values) 1205 Lu (Melanoma cells)
Method: (§1) Dr. Craig Myers, Penn State College of Medicine, Hershey, PA provided normal human fibroblast cell line FF2441. Mutant V600E-BRAF human melanoma cell line 1205 Lu was provided by Dr. Herlyn; Wistar Institute, Philadelphia, PA and UACC 903 was provided by Dr. Mark Nelson; University of Arizona, Tucson, AZ. Cell lines were maintained in a 37°C humidified 5% CO2 atmosphere incubator and periodically monitored for phenotypic, genotypic characteristics, and tumorigenic potential to validate and confirm cell line identity.
(§2) In brief, 5 × 10^3 cells per well in 100 μL of media were seeded and grown in a 96-well plate for 48 to 72 hours and treated with either DMSO vehicle control or 0.62 to 100 μmol/L of compounds for 72 hours. IC50 values for each compound in μmol/L for respective cell lines were measured from three independent experiments using GraphPad Prism version 4.01 (GraphPad Software, La Jolla, CA). In addition, recovery and viability assessment was also measured with these compounds co-treated simultaneously with 10 nmol/L of bafilomycin A1 (BafA1) or 1 mMol/L β-cyclodextrin and the viability was measured using the MTS assay after 24 hours.

UACC 903 melanoma cells = experiment: MTS cell viability assay, UACC 903 melanoma cells; type: cell-based, human; details: 72 hours treatment, read-out: Melanoma cell killing efficacy (IC50 values) UACC 903 (Melanoma cells)
Method: as §1, §2

[1] = tested on: normal human fibroblast cell line FF2441; experiment: MTS cell viability assay, normal fibroblasts; type: cell-based; details: 72 hours treatment, read-out: Melanoma cell killing efficacy (IC50 values) FF2441 (Normal Cells)
Method: as §1, §2

[2] = Dose escalation for oral administration of leelamine; type: in vivo; details: 80 mg/kg body weight (QOD) over 14 days, Swiss Webster mice
Method: To determine the effective oral dosage of leelamine, a dose escalation study was conducted in 4–6 week old Swiss Webster mice. […] Animals were weighed daily to ascertain potential toxic effects leading to changes in body weight. At the end of treatment, blood was collected from each sacrificed animal in a serum separator tube with lithium heparin (BD Microtainer) following cardiac puncture and levels of serum biomarkers of major organ toxicity were measured. In addition, vital organs including liver, spleen, kidney, intestine, lung and heart from control and experimental animals were collected on day 14, formalin fixed, paraffin-embedded, H&E stained and analyzed microscopically for changes in cellular morphology or tissue architecture.

[3] = Body weight and sub-chronic toxicity assessment (blood biomarkers) in tumor-bearing mice; type: in vivo; details: 80 mg/kg oral daily, 24 days of treatment
Method: 1 × 10^6 UACC 903 cells in 0.2 mL of DMEM supplemented with 10% FBS were subcutaneously injected above both left and right rib cages of 4–6 week old female athymic nu/nu mice. Six to eight days later, mice were randomly sorted into vehicle control 10% PEG (Poly ethylene glycol) and experimental compound 4a or leelamine groups, followed by daily oral administration of 80 mg/kg body weight. Volume of developing tumors in mm^3 was measured on alternate days using calipers along with assessment of body weights.
At the end of tumorigenicity assessment, blood was collected from each euthanized animal in a serum separator tube with lithium heparin (BD Microtainer), following cardiac puncture and analyzed for levels of ALT (Alanine aminotransferase), AST (Aspartate aminotransferase), ALKP (Alkaline phosphatase), ALB (Albumin), GLB (Globulin), TPR (Total Protein), TBIL (Total bilirubin), BUN (Blood urea nitrogen), GLU (Glucose), CK (Creatine kinase), CAL (Calcium).

melanoma cells = experiment: Autophagic flux: Western blot of p62 and LC3B; type: cell-based, human; details: Western blotting, 24 hours
From the text: (§3) Cell lysates were harvested and processed as described in refs [14, 29, 31, 34]. […] Protein lysates were collected for Western blotting analysis. Blots were probed with antibodies according to each supplier's recommendations: antibodies to IGF-1R, total AKT, phosphor AKT (Ser473), total PRAS40, phospho-PRAS40 (Thr246), total ERK1/2, phospho-ERK1/2 (Thr202/Tyr 204), total CDK2, phospho-CDK2 (Thr160), p62, LC3B, total STAT, phospho-STAT3 (Tyr705), caspase 3 and cleaved PARP from Cell Signaling Technology (Danvers, MA); cyclin D1, α-enolase and secondary antibodies conjugated with horseradish peroxidase from Santa Cruz Biotechnology (Santa Cruz, CA). Immunoblots were developed using the enhanced chemiluminescence (ECL) detection system (Thermo Fisher Scientific, Rockford, IL).

[4] = tested on: UACC 903 melanoma cell line; experiment: Western blot of signaling pathways (PI3K/AKT, STAT3, MAPK; pERK1/2); type: cell-based, human; details: active 3-5 μmol/L, inactive 30-50 μmol/L, 24 hours
From the text: as §3

[5] = Pharmacokinetics of leelamine in the serum of mice; type: in vivo; details: 80 mg/kg oral, Swiss Webster mice
Method: Leelamine was extracted from serum as reported previously. Swiss Webster mice were treated orally with 80 mg/kg body weight of leelamine, animals were euthanized and blood drawn by cardiac puncture at various time periods over 36 hours. Samples were kept at room temperature for 30 minutes followed by serum separation by centrifugation for 5 minutes at 5,000 rpm. Next, 20 μL of the collected serum was added to 80 μL of acetonitrile along with 5 μL of propranolol (RS)-1-(1-methylethylamino)-3-(1-naphthyloxy)propan-2-ol), which served as an internal standard (transition of m/z 259.9 to 116.0). Solution was vortexed for 30 seconds and then centrifuged at 10,000 rpm for 10 minutes. Supernatant was transferred to the auto sampler vials and subject to liquid chromatography-mass spectrometry using LC-MS/MS 2010 EV system (Shimadzu, Tokyo, Japan).

Row | Compound | IC50 (1205 Lu melanoma cells; Homo sapiens, 1205Lu, 72 h) [µM] | IC50 (UACC 903 melanoma cells; Homo sapiens, UACC-903, 72 h) [µM] | IC50 [1] [µM] | IC50 (1205 Lu melanoma cells) [µM] | IC50 (UACC 903 melanoma cells) [µM] | weight loss on repeated oral dosing [2] | body weights of mice [3] | autophagic flux (p62 and LC3B proteins) (melanoma cells) | effect on PI3K/AKT, STAT3 and MAPK signaling pathways [4] | time present in the serum ([5]; followed over 36 hours) [h] | Tmax ([5]; mouse, serum, LC-MS/MS, read-out: time of maximum concentration in serum) [h]
1 | CC(C)c1ccc2c(c1)CCC1[C@](C)(CNC(=O)C(Br)(Br)Br)CCC[C@]21C (stereo partly drawn) [5b, N-{[(1R, 4aS)-1,4a-dimethyl-7-(propan-2-yl)-1,2,3,4,4a, 9, 10, 10a-octahydrophenanthren-1-yl]methyl}-2,2,2-tribromoacetamide] | 1.8 | 1 | 4.1 ± 0.2 | – | – | – | – | – | – | – | –
2 | [(1R, 4aR)-1,4a-dimethyl-7-(propan-2-yl)-1, 2, 3, 4, 4a, 4b, 5, 6, 7,10a-decahydrophenanthren-1-yl] methanol [2b] | – | – | – | 60.3 ± 1.6 | 52.6 ± 1.4 | – | – | – | – | – | –
3 | CC(C)c1ccc2c(c1)CCC1C(C)(CN)CCCC21C (stereo not drawn) [Leelamine] | 1.93 ± 0.2 | 1.35 ± 0.1 | 8.91 ± 0.6 | – | – | did not cause any weight loss | No significant differences | dose dependently induced accumulation of p62 and LC3B proteins | inhibited | ≤ 24 | 6
4 | CC(C)c1ccc2c(c1)CCC1[C@](C)(CNCc3ccccc3)CCC[C@]21C (stereo partly drawn) [5e, N-benzyl-1-((1R, 4aS)-7-isopropyl-1,4a-dimethyl-1,2,3,4,4a, 9, 10, 10a-octahydrophenanthren-1-yl) methanamine] | 7 | 6 | 3.13 ± 0.4 | 7.05 ± 0.7 | – | – | – | – | – | – | –
5 | CCN(CC)C(=O)[C@]1(C)CCC[C@]2(C)C3CCC(C(C)C)=CC3=CCC21 (stereo partly drawn) [3c, (1R, 4aR)-N, N-diethyl-1,4a-dimethyl-7-(propan-2-yl)-1,2,3,4,4a, 4b, 5,6, 10, 10a-decahydrophenanthrene-1-carboxamide] | > 100 | > 100 | > 100 | – | – | – | – | – | – | – | –
6 | CC(C)c1ccc2c(c1)CCC1[C@](C)(CNC(=O)C(F)(F)F)CCC[C@]21C (stereo partly drawn) [5a, N-{[(1R, 4aS)-1,4a-dimethyl-7-(propan-2-yl)-1,2,3,4,4a, 9, 10, 10a-octahydrophenanthren-1-yl]methyl}-2,2,2-trifluoroacetamide] | 2 | 1.2 | 5.17 ± 0.1 | – | – | – | – | dose dependently induced accumulation of p62 and LC3B proteins | inhibited | – | –
7 | CC(=O)NC[C@]1(C)CCC[C@]2(C)c3ccc(C(C)C)cc3CCC12 (stereo partly drawn) [5c, N-{[(1R, 4aS)-1,4a-dimethyl-7-(propan-2-yl)-1,2,3,4,4a, 9, 10, 10a-octahydrophenanthren-1-yl]methyl} acetamide] | > 100 | 89.4 ± 3.3 | > 100 | – | – | – | – | – | did not affect these pathways | – | –
